Measured values: patent US10639327B1, “Nano-calcium carbonate” (Washington University in St. Louis, priority 2015, dated 2020)

Tests used:
2F2B cells = assay: Fluorescent micrographs of cells treated with DOX nanoparticles vs free DOX; assay type: cell-based; conditions: 30 min treatment, DOX fluorescence
Method: FIG. 4A depicts fluorescent micrographs showing 2F2B cells treated for 30 min with αvβ3-targeted perfluorocarbon nanoparticles incorporating DOX (Left) vs. equimolar exposure of free DOX (Middle).
Not only was significant amount delivered to the nucleus (white arrow), the cytoplasmic content of DOX remained high (yellow arrow), providing a continuous source of DOX for nuclear translocation. […] The data also confirm that DOX fluorescence, which was used to obtain these images, will provide sufficient contrast for imaging DOX's intracellular trafficking to the nuclei.

HT1080 tumors = conditions: I.V., 0.3-0.4 g/Kg (~10x the nanoparticle dosage)
Method: For determining pHe changes in vivo post bolus particle Intravenous injection, HT1080 tumors were grown subcutaneously in dorsal flanks of athymic nude mice, in dorsal bilateral flanks. Tumors generally grew in one flank. When the tumors growth reached approximately 50 mm^3 or greater, the extracellular pH was measured using an external pH electrode. […] Treatments were discontinued for at least 5 days before performing the in vivo pH measurements. […] The pH was measured using an extracellular pH electrode implanted into the tumor following a 15 min equilibration period after electrode entry. The pH electrode was calibrated within the week. About 1 mg of each size of particles (20 nm, 100 nm, 300 nm) in a 100 μL solution of PBS, CaCl2, MgCl2 and 2% bovine serum albumin was injected intravenously in individual mice. […] Tumor sizes at time of injection for this experiment were 12 mm×9 mm (20 nm particles), 13.7 mm×12.5 mm (100 nm), 13.5 mm×15.5 mm (300 nm), 12.5×16.5 mm (0.84% bicarbonate), 12.5×16.5 mm (7.5% bicarbonate), and 12.5×16.5 mm (vector). In general, the pH was then followed each minute for a minimum of 1 hour, or up to 3 hours if any changes were seen. […] Bleeding, if any, was also noted.

| Structure (SMILES) | cytoplasmic content of DOX (2F2B cells) | tumor pH change (HT1080 tumors) |
| --- | --- | --- |
| COc1cccc2c1C(=O)c1c(O)c3c(c(O)c1C2=O)C[C@@](O)(C(=O)CO)C[C@@H]3O[C@H]1C[C@H](N)[C@H](O)[C@H](C)O1 [free DOX, Doxorubicin] | depleted rapidly |  |
| O=C([O-])O.[Na+] [sodium bicarbonate] |  | did not induce a measurable pH change |
